# Molecular target: FXa (Homo sapiens, UniProt P00742)
# Test: Factor Xa inhibition (FXa-IC50)
# Type: biochemical
# Conditions: not given
# Chain of FXa (P00742 235-488 limits assumed): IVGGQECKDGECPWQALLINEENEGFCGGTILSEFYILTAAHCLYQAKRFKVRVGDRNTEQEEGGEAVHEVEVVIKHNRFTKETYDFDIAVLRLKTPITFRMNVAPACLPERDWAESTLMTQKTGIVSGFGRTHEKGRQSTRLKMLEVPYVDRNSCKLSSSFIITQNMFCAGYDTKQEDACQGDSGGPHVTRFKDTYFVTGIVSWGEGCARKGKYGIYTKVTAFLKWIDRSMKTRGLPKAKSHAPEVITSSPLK
# Chain of FXa (P00742 41-179 partner limits assumed): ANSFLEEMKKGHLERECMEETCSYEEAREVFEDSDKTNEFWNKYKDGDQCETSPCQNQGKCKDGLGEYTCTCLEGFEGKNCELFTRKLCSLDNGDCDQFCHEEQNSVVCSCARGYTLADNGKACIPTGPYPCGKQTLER
row,SMILES,IC50 [nM]
1,"C#Cc1ccc(NC(=O)N2C[C@H](OC)C[C@@H]2C(=O)Nc2ccc(-n3ccccc3=O)cc2)cc1 [Compound A1, 1-[(4-ethynylphenyl)]-2-{[4-(2-oxo-2H-pyridin-1-yl)phenyl]}-(2R,4R)-4-methoxypyrrolidine-1,2-dicarboxamide]",1.3
2,"C#Cc1ccc(NC(=O)N2C[C@H](OC)C[C@@H]2C(=O)Nc2ccc(N3CCOCC3=O)cc2)cc1 [Compound A2, 1-[(4-ethynylphenyl)]-2-{[4-(3-oxomorpholin-4-yl)phenyl]}-(2R,4R)-4-methoxypyrrolidine-1,2-dicarboxamide]",3.1

# Same assay, conditions: read-out: FXa-IC50
row,SMILES,IC50 [nM]
1,"C#Cc1ccc(NC(=O)N2CC(OCC)CC2C(=O)Nc2ccc(N3CCCCC3=O)cc2)cc1 [Compound A4-1, 1-[(4-ethynylphenyl)]-2-{[4-(2-oxopiperidin-1-yl)phenyl]}-(2R,4R)-4-ethoxypyrrolidine-1,2-dicarboxamide]",3
2,"C#Cc1ccc(NC(=O)N2CC(OCC)CC2C(=O)Nc2ccc(-n3ccccc3=O)c(F)c2)cc1 [Compound A4-2, 1-[(4-ethynylphenyl)]-2-{[3-fluoro-4-(2-oxo-2H-pyridin-1-yl)phenyl]}-(2R,4R)-4-ethoxypyrrolidine-1,2-dicarboxamide]",1.9
3,"C#Cc1ccc(NC(=O)N2CC(O)CC2C(=O)Nc2ccc3c(c2)CCN3C(C)=O)cc1 [Compound A4-3, 1-[(4-ethynylphenyl)]-2-{[1-acetyl-2,3-dihydro-1H-indol-5-yl]}-(2R,4R)-4-hydroxypyrrolidine-1,2-dicarboxamide]",2600
4,"C#Cc1ccc(NC(=O)N2CC(OC)CC2C(=O)Nc2ccc(-n3ccccc3=O)c(OC)c2)cc1 [Compound A4-4, 1-[(4-ethynylphenyl)]-2-{[3-methoxy-4-(2-oxo-2H-pyridin-1-yl)phenyl]}-(2R,4R)-4-methoxypyrrolidine-1,2-dicarboxamide]",2.8
5,"C#Cc1ccc(NC(=O)N2CC(OCC=C)CC2C(=O)Nc2ccc(N3CCOCC3=O)cc2)cc1 [Compound A4-5, 1-[(4-ethynylphenyl)]-2-{[4-(3-oxomorpholin-4-yl)phenyl]}-(2R,4R)-4-allyloxypyrrolidine-1,2-dicarboxamide]",3.1
6,"C#CCO[C@@H]1C[C@H](C(=O)Nc2ccc(N3CCOCC3=O)cc2)N(C(=O)Nc2ccc(C#C)cc2)C1 [Compound A4-6, 1-[(4-ethynylphenyl)]-2-{[4-(3-oxomorpholin-4-yl)phenyl]}-(2R,4R)-4-propargyloxypyrrolidine-1,2-dicarboxamide]",1.3
7,"C#Cc1ccc(NC(=O)N2CC(OCC(O)CO)CC2C(=O)Nc2ccc(N3CCOCC3=O)cc2)cc1 [Compound A4-7, 1-[(4-ethynylphenyl)]-2-{[4-(3-oxomorpholin-4-yl)phenyl]}-(2R,4R)-4-(2,3-dihydroxypropoxy)pyrrolidine-1,2-dicarboxamide]",3.1
8,"C#Cc1ccc(NC(=O)N2CC(OC)CC2C(=O)Nc2ccc(N3CC(O)CC3C(=O)OC)cc2)cc1 [Compound A4-8, 1-[(4-ethynylphenyl)]-2-{[4-(2-methoxycarbonyl-4-hydroxypyrrolidin-1-yl)phenyl]}-(2R,4R)-4-methoxypyrrolidine-1,2-dicarboxamide]",1100
9,"C#Cc1ccc(NC(=O)N2C[C@H](OCCOC)C[C@@H]2C(=O)Nc2ccc(N3CCOCC3=O)cc2)cc1 [Compound A4-9, 1-[(4-ethynylphenyl)]-2-{[4-(3-oxomorpholin-4-yl)phenyl]}-(2R,4R)-4-(methoxyethoxy)pyrrolidine-1,2-dicarboxamide]",3.3
10,"C#Cc1ccc(NC(=O)N2C[C@H](OCC(=O)OC)C[C@@H]2C(=O)Nc2ccc(N3CCOCC3=O)cc2)cc1 [Compound A4-10, 1-[(4-ethynylphenyl)]-2-{[4-(3-oxomorpholin-4-yl)phenyl]}-(2R,4R)-4-(methoxycarbonylmethoxy)pyrrolidine-1,2-dicarboxamide]",4.2
11,"C#Cc1ccc(NC(=O)N2C[C@H](OCC(=O)O)C[C@@H]2C(=O)Nc2ccc(N3CCOCC3=O)cc2)cc1 [Compound A4-11, 1-[(4-ethynylphenyl)]-2-{[4-(3-oxomorpholin-4-yl)phenyl]}-(2R,4R)-4-(carboxymethoxy)pyrrolidine-1,2-dicarboxamide]",4.8
12,"C#Cc1ccc(NC(=O)N2C[C@H](OC)C[C@@H]2C(=O)Nc2ccc(-n3nc(C)ccc3=O)cc2)cc1 [Compound A4-12, 1-[(4-ethynylphenyl)]-2-{[4-(6-methyl-3-oxo-2H-pyridazin-2-yl)phenyl]}-(2R,4R)-4-methoxypyrrolidine-1,2-dicarboxamide]",2100

# Molecular target: T1, TF/FVIIa (Homo sapiens, UniProt P08709)
# T1 construct: Coagulation factor VIIa initiates the extrinsic part of the coagulation cascade
# Test: TF/FVIIa inhibition (TF/FVIIa-IC50)
# Type: biochemical
# Conditions: not given
# T1 sequence (P08709 61-212): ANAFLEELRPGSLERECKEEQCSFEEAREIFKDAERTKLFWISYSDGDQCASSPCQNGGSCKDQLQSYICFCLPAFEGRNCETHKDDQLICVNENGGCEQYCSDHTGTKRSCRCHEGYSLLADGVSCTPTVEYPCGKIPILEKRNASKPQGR
# T1 sequence (P08709 213-466): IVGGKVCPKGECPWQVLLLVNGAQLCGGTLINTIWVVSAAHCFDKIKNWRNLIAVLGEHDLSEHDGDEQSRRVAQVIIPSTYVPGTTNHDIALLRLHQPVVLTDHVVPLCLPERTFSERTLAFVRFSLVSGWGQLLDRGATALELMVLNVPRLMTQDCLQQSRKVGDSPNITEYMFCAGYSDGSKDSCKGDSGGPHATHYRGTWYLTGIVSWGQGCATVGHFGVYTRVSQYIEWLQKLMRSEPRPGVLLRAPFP
# T1 sequence (P13726 33-295, further chain): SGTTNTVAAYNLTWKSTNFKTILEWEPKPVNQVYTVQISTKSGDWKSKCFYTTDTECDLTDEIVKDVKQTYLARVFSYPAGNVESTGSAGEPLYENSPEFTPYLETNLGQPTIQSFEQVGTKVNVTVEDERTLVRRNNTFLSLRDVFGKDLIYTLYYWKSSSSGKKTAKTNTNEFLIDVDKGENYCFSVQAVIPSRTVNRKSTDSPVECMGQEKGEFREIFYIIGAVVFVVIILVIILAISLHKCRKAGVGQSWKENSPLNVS
row,SMILES,IC50 [nM]
1,"C#Cc1ccc(NC(=O)N2C[C@H](OC)C[C@@H]2C(=O)Nc2ccc(-n3ccccc3=O)cc2)cc1 [Compound A1, 1-[(4-ethynylphenyl)]-2-{[4-(2-oxo-2H-pyridin-1-yl)phenyl]}-(2R,4R)-4-methoxypyrrolidine-1,2-dicarboxamide]",1.9
2,"C#Cc1ccc(NC(=O)N2C[C@H](OC)C[C@@H]2C(=O)Nc2ccc(N3CCOCC3=O)cc2)cc1 [Compound A2, 1-[(4-ethynylphenyl)]-2-{[4-(3-oxomorpholin-4-yl)phenyl]}-(2R,4R)-4-methoxypyrrolidine-1,2-dicarboxamide]",3.2

# — patent US7557222B2, “1-[(4-Ethynylphenyl)]-2-[(phenyl)]-pyrrolidine-1,2-dicarboxamide derivatives as inhibitors of coagulation factors Xa and VIIa for the treatment of thrombosis” (priority 2003, dated 2009)
